Laboratory results reported in patent US12161641B2, “Treatments and prevention of opioid neonatal abstinence syndrome” (Ohio State Innovation Foundation, priority 2016, dated 2024).

Experiment: Time-course of drug levels in adult and embryonic mouse plasma, brain and liver after a single subcutaneous injection (LC-MS/MS)
Settings: mouse, 10 mg/kg
[1] = female, brain (adult), subcutaneous
[2] = female, liver (adult), subcutaneous

Work on O=C1CC[C@@]2(O)[C@H]3Cc4ccc(O)c5c4[C@@]2(CCN3CC2CC2)[C@H]1O5 [Naltrexone, naltrexone, reference compound] yielded a concentration at 20 min [1] of 3230 ng/g, a concentration at 45 min [1] of 1470 ng/g and a concentration at 2 h [1] of 250 ng/g. For the same molecule, the concentration at 4 h [1] was 18 ng/g, the concentration at 20 min (female, in vivo) was 1880 ng/g and the concentration at 45 min (female, in vivo) was 620 ng/g. It also gave a concentration at 2 h (female, in vivo) of 130 ng/g, a concentration at 4 h (female, in vivo) of 4 ng/g and a concentration at 20 min [2] of 2100 ng/g. It also gave a concentration at 45 min [2] of 1390 ng/g, a concentration at 2 h [2] of 360 ng/g and a concentration at 4 h [2] of 32 ng/g. It also gave a concentration at 45 min (embryo brain, subcutaneous) of 2610 ng/g, a concentration at 2 h (embryo brain, subcutaneous) of 500 ng/g and a concentration at 45 min (embryo liver, subcutaneous) of 3190 ng/g. For the same molecule, the concentration at 2 h (embryo liver, subcutaneous) was 620 ng/g.
